Assay results reported in publication PMC3469158, “Hesperidin-3′-O-Methylether Is More Potent than Hesperidin in Phosphodiesterase Inhibition and Suppression of Ovalbumin-Induced Airway Hyperresponsiveness” (Evidence-based Complementary and Alternative Medicine : eCAM, 2012).
pEC50: −log10 of the molar value.

Legend:
IL-4 = system: IL-4; parameters: method as in PMID 21287361; settings: 10 mg/kg (16.38 μmol/kg, p.o.); similar animal model; cited from earlier work
[1] = system: high-affinity rolipram-binding sites (HARBSs), PDE4H; assay: Displacement of [3H]-rolipram from high-affinity rolipram-binding sites of brain cell membranes (PDE4H); parameters: species or system guinea pig
Protocol: When the above-mentioned guinea pigs were sacrificed, the whole brains were removed and homogenized with a glass/Teflon homogenizer (Glas-Col, Terre Haute, IN, USA) in 10 volumes of cold medium (pH 6.5) containing 20 mM Bis-Tris, 2 mM benzamidine, 2 mM EDTA, 50 mM sodium chloride, 0.1 mM PMSF, and 1 mM dithiothreitol. At 4°C, the homogenate was centrifuged at 170 g for 5 min to remove connective tissues and blood vessels. The suspended homogenate was then recentrifuged at 40,000 g for 30 min to separate the cytosolic and particulate portions. The particulate portion was resuspended in a suspension at a concentration of 400 mg/mL (wet weight/volume), after washing three times with homogenizing buffer. The particulate portion mainly consisted of cell membranes. […] Briefly, the reaction buffer consisted of 50 mM Tris-HCl and 5 mM MgCl2 (pH 7.5). […] After 1 h, the reaction was terminated by moving the reaction vessel into crushed ice. Then the reaction mixture was transferred onto Whatman GF/B glass-fiber filters, which were soaked in a 0.3% polyethyleneimine solution in a mini-funnel.

[2] = system: inflammatory cells in BALF; assay: Inflammatory cell counts in BALF of sensitized and challenged mice; type: in vivo, BABL/c mice
Protocol: According to the schedule (Figure 2), ten female BABL/c mice in each group were sensitized by an intraperitoneal (i.p.) injection of 20 μg of ovalbumin emulsified in 2.25 mg of an aluminum hydroxide gel, prepared from aluminum sulfate hexadecahydrate, in a total volume of 100 μL on days 0 and 14. Mice were challenged via the airway using 1% ovalbumin in saline for 30 min on days 28, 29, and 30 by ultrasonic nebulization. After the last ovalbumin challenge, AHR was assessed on day 32 (48 h after 1% ovalbumin provocation) in each group. Each group of mice was orally (p.o.) administered the vehicle (control), 30∼100 μmol/kg of hesperidin or 10∼100 μmol/kg of hesperidin-3′-O-methylether 2 h before and 6 and 24 h after ovalbumin provocation. For comparison, sham-treated mice were challenged with saline instead of 1% ovalbumin (nonchallenged). The vehicle, a mixture of DMSO : PEG 400 : saline (1 : 1 : 8, v/v), hesperidin, or hesperidin-3′-O-methylether was administered (p.o.) at a volume of 0.01 mL/g of body weight. AHR was assessed by barometric plethysmography using a whole-body plethysmograph (WBP) and analyzed using software of Life Science Suite P3 Analysis Modules (Gould, LDS Test and Measurement LLC, Valley View, OH, USA) in unrestrained animals. Mice were placed into the main chamber of the WBP, and the baseline enhanced pause (P enh) value was determined. Then mice were first nebulized with phosphate-buffered saline (PBS), and subsequently with increasing doses (6.25∼50 mg/mL) of methacholine for 3 min for each nebulization, followed by readings of breathing parameters for 3 min after each nebulization to determine P enh values. Twenty-four hours after P enh determination, these mice were anesthetized with pentobarbital (50 mg/kg, i.p.), and the lungs were lavaged via a tracheal tube with PBS (1 × 1.0 mL, 37°C). After lavage, blood was collected from the jugular vein and allowed to sit so that it would coagulate. The collected bronchoalveolar lavage fluid (BALF) and coagulated blood were respectively centrifuged at 630 g for 7 min and at 3700 g for 10 min at 4°C. After centrifugation, the BALF and serum supernatants were stored at −20°C until determinations of cytokines, including interleukin (IL)-2, IL-4, IL-5, tumor necrosis factor (TNF)-α, and interferon (IFN)-γ by flow cytometric methods using mouse Th1/Th2 cytokine CBA kits, and of a total immunoglobulin (Ig)E and IgG2a using ELISA kits (Pharmingen, San Diego, CA, USA) according to the respective recommendations of the manufacturers. Ovalbumin-specific IgE was measured as described previously. Wells were coated with 100 μL of ovalbumin (20 μg/mL) instead of the capture antibody. Levels are expressed in arbitrary units, where 1 arbitrary unit equals the optical density of the sample divided by the optical density of unchallenged mouse serum or BALF (standard). The BALF pellet was resuspended in ACK lysing buffer (1.658 g NH4Cl, 0.2 g KHCO3, and […] EDTA in 200 mL of water) to lyse the residual erythrocytes in each sample. The number of inflammatory cells was counted using a hemocytometer (Hausser Scientific, Horsham, PA, USA). Cytospin slides were stained and cell differentials were determined in a blinded fashion by counting at least 100 cells under light microscopy. All undetectable data (<1 pg/mL) of cytokines were taken as 0.5 pg/mL.

COc1ccc([C@@H]2CC(=O)c3c(O)cc(O[C@@H]4O[C@H](CO[C@@H]5O[C@@H](C)[C@H](O)[C@@H](O)[C@H]5O)[C@@H](O)[C@H](O)[C@H]4O)cc3O2)cc1O [hesperidin]
level of IL-4 (IL-4): insignificantly inhibit | pEC50 ([1]; 2 nM [3H]-rolipram, guinea pig brain cell membranes, read-out: EC50 (PDE4H) for displacing [3H]-rolipram binding): < 3.52 | displacement of 2 nM [3H]-rolipram binding on HARBSs ([1]; 300 μM, guinea pig brain cell membranes): 27.0 ± 1.4% | PDE4H/PDE4L ratio ([1]; therapeutic ratio, EC50 (PDE4H) / IC50 (PDE4L)): 3 | numbers of all inflammatory cells examined in BALF ([2]; 30 μmol/kg p.o.): unaffected | increases in numbers of total inflammatory cells, macrophages, lymphocytes, neutrophils, and eosinophils in BALF ([2]; 100 μmol/kg p.o.): significantly suppressed
